Measurements taken from patent US5451522A, “Genes encoding and method of expressing an enzyme: phthalyl amidase” (priority 1994, dated 1995).
One block for each molecule: values may come before it.

How the values were obtained:
phthalyl amidase [1] = biological target: T1, phthalyl amidase (Xanthobacter agilis, UniProt P0C2Y0); assay: Preparative scale hydrolysis to carbacephem nucleus; format: biochemical
T1 construct: 42-aa signal peptide removed
Method: (§1) Thus, either compound XXXIII or III can be used to prepare the carbacephem nucleus (XXXIV). Substrate (4 grams) was added to 20 ml of deionized water and the pH of the solution was adjusted to 8.0 with concentrated ammonium hydroxide. Phthalyl amidase, 80 units as determined using the chromogenic substrate (II), was added to start the reaction. Temperature was maintained at 30° C. and the pH maintained at 8.0 by adding 2N ammonium hydroxide. […] The pH of the reaction was lowered to 5.0 thereby precipitating the carbacephem nucleus. Isolated yields of the nucleus were between 65% and 77%. [drawing 26]

phthalyl amidase [2] = biological target: T1, phthalyl amidase; assay: Kinetic parameters for phthalyl amidase; format: biochemical; conditions: 50 mM potassium phosphate buffer, pH 8.0, 30° C.
Method: (§2) The kinetic parameters of the enzyme were determined for several representative substrates. Compounds II, XVII, and XVIII were tested using 0.9 μg/ml of enzyme. Compounds III and XI were tested using 5.14 μg/ml of enzyme. Substrate concentrations were between 0 and 25 mM and reaction time was between 2 and 20 minutes, depending on the substrate used. […] Km is the Michaelis constant for enzyme kinetics, Vmax is the maximal rate of reaction calculated by the Michaelis-Menten equation, and Kcat is the catalytic constant for an enzyme reaction.

phthalyl amidase [3] = biological target: T1, phthalyl amidase; assay: Chiral and additional substrate selectivity of phthalyl amidase; format: biochemical; conditions: Table 13; III = 100; 0.009 mg (0.6 units) enzyme, 2.5 μmol substrate, buffer A, 30° C.
Method: Several additional substrates were tested in a total volume of 1 ml. […] Reactions were stopped by the addition of methanol, and phthalic acid formation was monitored by HPLC.

phthalyl amidase [4] = biological target: T1, phthalyl amidase; assay: Substrate specificity: chemical structure requirements for enzyme activity; format: biochemical; conditions: 2.5 μmol compound, 0.3 units enzyme, 50 mM phosphate pH 8.0, 30° C.
Method: (§3) The activity of phthalyl amidase against 25 compounds was determined. The compounds were divided into beta-lactams (Table 9), phthalyl amides (Table 10), and aromatic ring substituted amides (Table 11). Each reaction mixture (1 ml total volume) contained 2.5 μmol of compound and 0.3 units of enzyme (based on the chromogenic substrate) of the preparative scale purified enzyme, in 50 mM phosphate buffer, pH 8.0. The reactions were conducted at 30° C. Samples of the reaction mixture were taken at various times, and methanol (equal volume) was added to stop the reaction. The samples were examined by HPLC to determine the extent of substrate hydrolysis. The amount of compound hydrolyzed was calculated from a standard curve of the test compound. All substrates were stable in buffer at 30° C. and pH 8.0 in the absence of enzyme for 24 hours.

[5] = Stability of substrates in buffer without enzyme; format: physicochemical; conditions: buffer at pH 8.0
Method: as §3
as §1, with “Isolated yields of the nucleus were between 65% and 77%. [drawing 26]” left out

[6] = substrate: O=C(O)CNC(=O)c1ccccc1C(=O)O; assay: Kinetic parameters for phthalyl amidase; format: biochemical, Xanthobacter agilis; conditions: other: 32° C., pH 8.2; II, XVII, XVIII with 0.9 μg/ml enzyme, III and XI with 5.14 μg/ml; pH 8.2; 32.0 °C
Method: as §2

[7] = substrate: CCCCCCC(C(=O)O)n1cnc(NC(=O)c2ccccc2C(=O)O)c1; assay: Kinetic parameters for phthalyl amidase; format: biochemical, Xanthobacter agilis; conditions: other: 32° C., pH 8.2; II, XVII, XVIII with 0.9 μg/ml enzyme, III and XI with 5.14 μg/ml; pH 8.2; 32.0 °C
Method: as §2

[8] = substrate: CCCCCCC(C(=O)O)n1cnc(NC(=O)c2c(F)cccc2C(=O)O)c1; assay: Kinetic parameters for phthalyl amidase; format: biochemical, Xanthobacter agilis; conditions: other: 32° C., pH 8.2; II, XVII, XVIII with 0.9 μg/ml enzyme, III and XI with 5.14 μg/ml; pH 8.2; 32.0 °C
Method: as §2

[9] = substrate: O=C(O)c1ccccc1C(=O)Nc1ccc([N+](=O)[O-])c(C(=O)O)c1; assay: Kinetic parameters for phthalyl amidase; format: biochemical, Xanthobacter agilis; conditions: other: 32° C., pH 8.2; II, XVII, XVIII with 0.9 μg/ml enzyme, III and XI with 5.14 μg/ml; pH 8.2; 32.0 °C
Method: as §2

[10] = substrate: O=C(O)C1=C(Cl)CCC2C(NC(=O)c3ccccc3C(=O)O)C(=O)N12; assay: Kinetic parameters for phthalyl amidase; format: biochemical, Xanthobacter agilis
Method: as §2

hydrolyzed (HPLC) (phthalyl amidase [1]; phthalyl amidase, […], pH 8): 90.0% | Vmax (phthalyl amidase [2]): 7.6 µmol/min/mg | Relative Activity (phthalyl amidase [3]): 100 | Relative Activity (phthalyl amidase [4]; Table 9 beta-lactams, III = 100): 100 | Relative Activity (phthalyl amidase [4]; Table 10 phthalyl amides, III = 100.0): 100.0
Molecule: O=C(O)C1=C(Cl)CCC2C(NC(=O)c3ccccc3C(=O)O)C(=O)N12 (stereo not shown) [III, 7-phthalamido-3-chloro-4-carboxy-1-carba-dethioceph-3-em]

Molecule: O=C(O)C1=C(Cl)CCC2C(N3C(=O)c4ccccc4C3=O)C(=O)N12 (stereo not shown) [XXXIII]
hydrolysis of phthalimido to phthalamido form in buffer (in words) [5]: readily hydrolyzes | hydrolyzed (HPLC) (phthalyl amidase [1]; 4 grams substrate, 80 units enzyme, pH 8.0, 30° C., after 510 minutes): 98%

B1: phthalyl amidase (Xanthobacter agilis) (protein)
chain: QAPSVHQHVAFTEEIGDLPDGSSYMIRVPENWNGVLIRDLDLVSGTSNSNAARYETMLKEGFAVAGTARHPLRQWQYDPAHEIENLNHVLDTFEENYGSPERVIQYGCSGGAHVSLAVAEDFSDRVDGSVALAAHTPVWIMNSFLDGWFSLQSLIGEYYVEAGHGPLSDLAITKLPNDGSSNSSGHGMEGDLPAAWRNAFTAANATPEGRARMALAFALGQWSPWLADNTPQPDLDDPEAIADSVYESAMRLAGSPGGEARIMFENAARGQQLSWNDDIDYADFWENSNPAMKSAVQELYDTAGLDLQSDIETVNSQPRIEASQYALDYWNTPGRNVIGDPEVPVLRLHMIGDYQIPYSLVQGYSDLISENNNDDLYRTAFVQSTGHCNFTAAESSAAIEVMMQRLDTGEWPSTEPDDLNAIAEASNTGTEARFMALDGWEIPEYNRTWKPE
notes: 42-aa signal peptide removed
Km [6]: 140 µM | Km [7]: 90 µM | Km [8]: 170 µM | Km [9]: 50 µM | Km ([10]; other: 50 mM potassium phosphate buffer, pH 8.0, 30° C., pH 8.0, 30.0 °C): 900 µM | Km ([10]; other: 32° C., pH 8.2, II, XVII, XVIII with 0.9 μg/ml enzyme, III and XI with 5.14 μg/ml, pH 8.2, 32.0 °C): 900 µM
